Measured values: patent US10806794B2, “Protease inhibitors having enhanced features” (priority 2008, dated 2020)
Like-named read-outs stand apart in the source and are kept apart here.

Experiments:
Caco-2 cells = test: in vitro
Protocol: Absorption properties of various compounds were measured using bi-directional permeability assays in Caco-2 cells. […] The efflux ratio is calculated as the ratio of the Papp(B→A)/Papp(A→B).

[1] = Plasma protein binding by equilibrium dialysis, human plasma; assay type: in vitro ADME; conditions: human plasma, 5 μM, fraction unbound; read-out: Plasma Protein Binding Fu ± SD
How it was run: (§1)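 Compound at 5 μM in species-specific plasma (0.5% DMSO) was dialysed against plasma-free buffer for 2 h at 37 °C to equilibrium. Compound on each side of the membrane was quantified by LC-MS/MS.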

PBMCs [2] = test: PBMC macromolecule synthesis (tritiated precursor incorporation); assay type: cell-based, human; conditions: for Thymidine Incorporation (PBMC) TC50: DNA synthesis; for Uridine Incorporation (PBMC) TC50: RNA synthesis; for Leucine Incorporation (PBMC) TC50: protein synthesis
Protocol: Cellular macromolecule synthesis was evaluated using tritiated precursor incorporation assays. PBMCs (5×10^4 cells/well) were cultured in the presence or absence of test compound for 7 days at 37 C, 5% CO2 in a 96-well microtiter plate. On day 6 of the incubation, 1 uCi of [methyl-3H]-thymidine for DNA synthesis, [5-3H]-uridine for RNA synthesis, or [3,4,5-3H]-leucine for protein synthesis was added to compound-treated cells, and the plate was further incubated for 16 hours. The cells were transferred to a glass fiber filtermat using an Inotech cell harvester. The filtermats were washed with distilled water then sealed in a bag with scintillation fluid. Incorporated radioactivity was measured using a Wallac scintillation counter.

HIV-1Ba-L = test: Anti-HIV-1 activity in monocyte-derived dendritic cells (reverse transcriptase activity); assay type: cell-based
Protocol: Freshly separated human PBMCs from a single donor were suspended in DPBS at 4×10^6 cells/mL and incubated in a 75 cm^2 cell culture flask for 90 minutes at 37° C., 5% CO2. Non-adherent cells were removed by washing with DPBS. Differentiation to dendritic cells was induced by 7 day incubation in RPMI 1640 medium supplemented with 10% fetal bovine serum, 2 mmol/L L-glutamine, 25 mM HEPES, 100 Units/mL penicllin, 10 μg/mL streptomycin, 50 ng/mL recombinant human granulocyte-macrophage-colony stimulating factor (GM-CSF), and 50 ng/mL recombinant human Interleukin (IL)-4 at 37° C., 5% CO2. The cells were further incubated for two days in the same cytokine cocktail supplemented with 10 ng/mL lipopolysaccharide (LPS). The monocyte-derived dendritic cells were then suspended at 10×10^6 cells/mL in complete medium (RPMI 1640 medium supplemented with 10% fetal bovine serum, 2 mmol/L L-glutamine, 25 mM HEPES, 100 Units/mL penicllin, 10 μg/mL streptomycin) and infected for 2 h at 37 C, 5% CO2 with HIV-1Ba-L at MOI=50-150 TCID50. […] Compound diluted in complete medium was added to cells. After seven days in culture, HIV-1 replication was quantified by measuring HIV-1 reverse transcriptase activity in cell-free supernatants using a standard radioactive tritiated thymidine triphosphate (TTP) polymerization incorporation assay. For each reaction, 1 μL of TTP (1 Ci/mL) was combined with 4 μL of dH2O, 2.5 μL of poly rA and oligo dT (0.5 mg/mL and 1.7 Units/mL, respectively), and 2.5 μL reaction buffer (125 μL 1 mol/L EGTA, 125 μL dH2O, 125 μL 20% Triton X-100, 50 μL 1 mol/L Tris, pH 7.4, 50 μL 1 mol/L DTT, 40 μL 1 mol/L MgCl2), then 10 μL of the resulting mixture was combined with 15 µL of virus-containing supernatant in a round-bottom microtiter plate and the plate incubated at 37° C. in a humidified incubator for 90 minutes. Following incubation, 10 μL of the reaction volume was spotted onto a DEAD filter mat, then washed 5×5 min with 5% sodium phosphate buffer, 2×1 minute in distilled water, 2×1 minute in 70% ethanol, then air dried. The filter mat was incubated with Opti-Fluor O scintillation fluid, and radioactivity quantified using a Wallac 1450 Microbeta Trilux liquid scintillation counter.

[3] = test system: monocyte-derived dendritic cells; test: Cytotoxicity in monocyte-derived dendritic cells (XTT); assay type: cell-based, human
Excerpt: Cell viability is directly proportional to the amount of reduced XTT product formed.

PBMCs [4] = test: Toxicity in PBMCs cultured without virus (XTT)
Protocol: Fresh human peripheral blood mononuclear cells (PBMCs) obtained from a commercial source were purified following centrifugation using a Ficoll-Hypaque density gradient. Viable cells were induced to proliferate in the presence of PHA-P and recombinant human IL-2 for 72 hours. […] Cell supernatant containing HIV-1 viral was incubated for 90 minutes at 37° C. with a reaction mixture containing EGTA, Triton X-100, Tris (pH 7.4), DTT, MgCl2, poly rA, oligo dT, and tritiated thymidine triphosphate (TTP). Incorporation of TTP into DNA was monitored by spotting the reaction mixture onto a DEAE filter mat, followed by washes with 5% phosphate buffer, distilled water, and 70% ethanol, and subsequent drying of the mat. […] TI was calculated as TC50/EC50.

[5] = test system: Sprague-Dawley rat hepatocytes; test: Metabolic stability in Sprague-Dawley rat hepatocytes; assay type: in vitro ADME; conditions: 0.1 uM
beagle dog hepatocytes = test: Metabolic stability in beagle dog hepatocytes; assay type: in vitro ADME; conditions: 0.1 uM
human plasma proteins = test: Plasma protein binding by equilibrium dialysis, human plasma; assay type: in vitro ADME; conditions: human plasma, 5 μM, fraction unbound
How it was run: as §1

[6] = test system: human liver microsomal proteins; test: Microsomal protein binding by equilibrium dialysis; assay type: in vitro ADME; conditions: human liver microsomes, 3 μM, fraction unbound
How it was run: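 Compound at 3 μM final in buffer with or without human liver microsomes, dialysed to equilibrium at 37 °C. Both sides quantified by LC-MS/MS to derive fraction unbound (Fu).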

dog plasma proteins = test: Plasma protein binding by equilibrium dialysis, dog plasma; assay type: in vitro ADME; conditions: fraction unbound
Protocol: In assays to estimate binding of test compounds to plasma proteins, test compound solutions (5 μM) are prepared in buffer and species-specific plasma (final DMSO concentration 0.5%). The plasma-containing solution is added to one side of the membrane of an equilibrium dialysis system, and the plasma-free is added to the other side. Dialysis was allowed to reach equilibrium by incubation for two hours at 37° C. The concentration of compound on both sides of the membrane was measured using LC-MS/MS.

[7] = seven days, absence of virus, XTT
[8] = Caco-2 monolayers, apical to basolateral
[9] = dendritic cells, first determination, read-out: EC50 First
[10] = dendritic cells, mean of three, read-out: Mean EC50
[11] = dendritic cells, second determination, read-out: EC50 Second
[12] = dendritic cells, third determination, read-out: EC50 Third

Row | Structure (SMILES) | A→B, ×10^−6 (Caco-2 cells; human, Caco-2) [cm/s] | fraction unbound at 2 h, 5 μM [1] | Thymidine Incorporation (PBMC) TC50 (PBMCs [2]) [nM] | Uridine Incorporation (PBMC) TC50 (PBMCs [2]) [nM] | Leucine Incorporation (PBMC) TC50 (PBMCs [2]) [nM] | TC50 [3] [nM] | PBMC TC50 ± SD (PBMCs [4]; [7]) [nM] | Efflux ratio (B→A/A→B) (Caco-2 cells; Caco-2 monolayers) | A→B, ×10^−6 (Caco-2 cells; [8]) [cm/s] | CLint ± SEM (beagle dog hepatocytes) [μL/min/10^6 cells] | t1/2 (beagle dog hepatocytes) [h] | Plasma Protein Binding Fu ± SD (human plasma proteins) | Microsomal Protein Binding Fu ± SD [6] | EC50 (HIV-1Ba-L; [9]) [nM] | EC50 (HIV-1Ba-L; [10]) [nM] | EC50 (HIV-1Ba-L; [11]) [nM] | EC50 (HIV-1Ba-L; [12]) [nM] | Dog Plasma Protein Binding Fu ± SD (dog plasma proteins) | other results
1 | COC(=O)N[C@H](C(=O)N[C@@H](Cc1ccccc1)[C@@H](O)CN(Cc1ccc(-c2ccccn2)cc1)NC(=O)[C@@H](NC(=O)OC)C(C)(C)C)C(C)(C)C [Atazanavir, reference compound] | 2.04 | 0.106 ± 5.25e-05 | 81100 | 87200 | 94700 |  |  |  |  |  |  |  |  |  |  |  |  |  | 
2 | CC(C)CN(C[C@@H](O)[C@H](Cc1ccccc1)NC(=O)O[C@H]1CO[C@H]2OCC[C@H]21)S(=O)(=O)c1ccc(N)cc1 [Darunavir, reference compound] |  | 0.144 ± 0.0051 | 184300 | 189300 | 258300 | >200000 |  |  |  |  |  |  |  |  |  |  |  |  | EC50 (HIV-1Ba-L; Human immunodeficiency virus 1, Dendritic cell, read-out: EC50 First, dendritic cells, first determination): 2 nM; EC50 (HIV-1Ba-L; Human immunodeficiency virus 1, Dendritic cell, read-out: EC50 Second, dendritic cells, second determination): 3 nM; EC50 (HIV-1Ba-L; Human immunodeficiency virus 1, Dendritic cell, read-out: EC50 Third, dendritic cells, third determination): 3 nM; EC50 (HIV-1Ba-L; Human immunodeficiency virus 1, Dendritic cell, read-out: Mean EC50, dendritic cells, mean of three): 2.7 nM
3 | COCCOCCOCCOc1ccc(C[C@H](NC(=O)O[C@H]2CO[C@H]3OCC[C@H]32)C(O)CN(CC(C)C)S(=O)(=O)c2ccc(N)cc2)cc1 (some centres unmarked) [mPEG3-O-Darunavir] |  |  | 109600 | 139400 | 218900 | >200000 | >200000 | 32 | 0.51 | 15.5 ± 0.000361 | 1.49 | 0.274 ± 0.0194 | 0.936 ± 0.0109 | 0.17 | 5.9 | 0.84 | 16.7 |  | CLint ± SEM [5]: 28.4 ± 0.00359 μL/min/10^6 cells; t1/2 [5]: 0.813 h
4 | COCCOCCOCCOCCOCCNc1ccc(S(=O)(=O)N(CC(C)C)CC(O)[C@H](Cc2ccccc2)NC(=O)O[C@H]2CO[C@H]3OCC[C@H]32)cc1 (some centres unmarked) [mPEG5-N-Darunavir] |  |  | 41300 | 73200 | 98500 | >200000 |  | 21 | 1.07 |  |  | 0.338 ± 0.0368 | 0.864 ± 0.011 | 8 | 16.7 | 2 | 40 |  | 
5 | COCCOCCOCCOCCOCCOc1ccc(C[C@H](NC(=O)O[C@H]2CO[C@H]3OCC[C@H]32)C(O)CN(CC(C)C)S(=O)(=O)c2ccc(N)cc2)cc1 (some centres unmarked) [mPEG5-O-Darunavir] |  |  | >400000 | >400000 | >400000 | >200000 | >200000 |  |  | 4.93 ± 0.000253 | 4.68 | 0.448 ± 0.0195 | 0.804 ± 0.253 | 60 | 56.7 | 60 | 50 |  | CLint ± SEM [5]: 37.0 ± 0.00425 μL/min/10^6 cells; t1/2 [5]: 0.625 h
6 | COCCOCCOCCOCCOCCOCCOCCNc1ccc(S(=O)(=O)N(CC(C)C)CC(O)[C@H](Cc2ccccc2)NC(=O)O[C@H]2CO[C@H]3OCC[C@H]32)cc1 (some centres unmarked) [mPEG7-N-Darunavir] |  |  |  |  |  | >200000 | >200000 |  | 0.32 |  |  | 0.364 ± 0.0298 | 0.973 ± 0.0139 | 70 | 63.3 | 40 | 80 |  | 
7 | COCCOCCOCCOC(=O)NC(C(=O)NC(Cc1ccccc1)C(O)CN(Cc1ccc(-c2ccccn2)cc1)NC(=O)C(NC(=O)OC)C(C)(C)C)C(C)(C)C (centres unmarked) [mono-mPEG3-Atazanavir, {1-[N′-[2-Hydroxy-3-(2-{2-[2-(2-methoxy-ethoxy)-ethoxy]-ethoxycarbonylamino}-3,3-dimethyl-butyrylamino)-4-phenyl-butyl]-N′-(4-pyridin-2-yl-benzyl)-hydrazinocarbonyl]-2,2-dimethyl-propyl}-carbamic Acid Methyl Ester] |  | 0.217 ± 0.000495 | 36600 | 27700 | 82000 |  |  |  |  |  |  |  |  |  |  |  |  |  | 
8 | COCCOCCOCCOCCOCCOC(=O)NC(C(=O)NC(Cc1ccccc1)C(O)CN(Cc1ccc(-c2ccccn2)cc1)NC(=O)C(NC(=O)OC)C(C)(C)C)C(C)(C)C (centres unmarked) [mono-mPEG5-Atazanavir] | 0.12 |  |  |  |  | >1000 |  | 88 |  |  |  |  |  | 0.15 | 1.24 | 3.42 | 0.14 | 0.695 ± 0.118 | 
9 | COCCOCCOCCOCCOCCOCCOC(=O)NC(C(=O)NC(Cc1ccccc1)C(O)CN(Cc1ccc(-c2ccccn2)cc1)NC(=O)C(NC(=O)OC)C(C)(C)C)C(C)(C)C (centres unmarked) [mono-mPEG6-Atazanavir] | 0.11 |  |  |  |  | >1000 |  | 68 |  | 0.209 ± 0.000143 | 110.6 |  |  | 0.16 | 0.2 | 0.21 | 0.23 | 0.497 ± 0.0386 | 
10 | COCCOCCOCCOCCOCCOCCOCCOC(=O)NC(C(=O)NC(Cc1ccccc1)C(O)CN(Cc1ccc(-c2ccccn2)cc1)NC(=O)C(NC(=O)OC)C(C)(C)C)C(C)(C)C (centres unmarked) [mono-mPEG7-Atazanavir] | 0.10 |  |  |  |  | >1000 |  | 52 |  |  |  |  |  | 0.13 | 4.03 | 11.7 | 0.25 | 0.306 ± 0.0478 | PBMC TC50 ± SD (PBMCs [4]): 187200 nM
